Source: ChEMBL document CHEMBL1201862, “PubChem BioAssay data set” (2004)
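Interpolation was linear, between the two tested concentrations surrounding the appropriate level; five concentrations were tested over 48 hours in 96-well plates. GI50: concentration for 50% inhibition of growth.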 Active and inactive are the calls of the source. Rule as the data show it: active = GI50 up to about 1.1 µM and inactive = higher.

Key:
Assay in all cases: DTP human tumour cell line panel, 48 h
SF-295 = test system: SF-295
OVCAR-4 = test system: OVCAR-4
ACHN = test system: ACHN
SN12C = test system: SN12C
HOP-62 = test system: HOP-62
EKVX = test system: EKVX
M14 = test system: M14
786-0 = test system: 786-0
SNB-75 = test system: SNB-75
COLO 205 = test system: COLO 205
NCI-H226 = test system: NCI-H226
HCT-116 = test system: HCT-116
MDA-MB-231 = test system: MDA-MB-231
T47D = test system: T47D
OVCAR-3 = test system: OVCAR-3
CAKI-1 = test system: CAKI-1
MCF7 = test system: MCF7
HCC 2998 = test system: HCC 2998
OVCAR-8 = test system: OVCAR-8
K562 = test system: K562
NCI-H23 = test system: NCI-H23
LOX IMVI = test system: LOX IMVI
SK-MEL-28 = test system: SK-MEL-28
TK-10 = test system: TK-10
MDA-MB-435 = test system: MDA-MB-435
BT-549 = test system: BT-549
SK-OV-3 = test system: SK-OV-3
UACC-257 = test system: UACC-257
PC-3 = test system: PC-3
MOLT-4 = test system: MOLT-4
MDA-N = test system: MDA-N
KM12 = test system: KM12
SF-539 = test system: SF-539
CCRF-CEM = test system: CCRF-CEM
NCI/ADR-RES = test system: NCI/ADR-RES
OVCAR-5 = test system: OVCAR-5
SF-268 = test system: SF-268
U-251 = test system: U-251
SR = test system: SR
HT-29 = test system: HT-29
SW-620 = test system: SW-620
SK-MEL-2 = test system: SK-MEL-2
NCI-H460 = test system: NCI-H460
HCT-15 = test system: HCT-15
DU-145 = test system: DU-145
NCI-H522 = test system: NCI-H522
RXF 393 = test system: RXF 393
Hs-578T = test system: Hs-578T
RPMI-8226 = test system: RPMI-8226
SNB-19 = test system: SNB-19
SK-MEL-5 = test system: SK-MEL-5
IGROV-1 = test system: IGROV-1
UO-31 = test system: UO-31
A549 = test system: A549
Malme-3M = test system: Malme-3M
UACC-62 = test system: UACC-62
HL-60 = test system: HL-60
A498 = test system: A498

In the case of `Cc1c(NC(=O)CSC(=S)N(C)C)c(=O)n(-c2ccccc2)n1C`, the GI50 (SF-295) is reported as > 100 µM (inactive), the GI50 (OVCAR-4) is reported as > 100 µM (inactive) and the GI50 (ACHN) is reported as > 100 µM (inactive). For the same compound, the GI50 (SN12C) was > 100 µM (inactive), the GI50 (HOP-62) was > 100 µM (inactive) and the GI50 (EKVX) was > 100 µM (inactive). The GI50 (M14) was > 100 µM (inactive), the GI50 (786-0) was > 100 µM (inactive) and the GI50 (SNB-75) was > 100 µM (inactive). For the same compound, the GI50 (COLO 205) was > 100 µM (inactive), the GI50 (NCI-H226) was > 100 µM (inactive) and the GI50 (HCT-116) was > 100 µM (inactive). The GI50 (MDA-MB-231) was > 100 µM (inactive), the GI50 (T47D) was > 100 µM (inactive) and the GI50 (OVCAR-3) was > 100 µM (inactive). The GI50 (CAKI-1) was > 100 µM (inactive), the GI50 (MCF7) was > 100 µM (inactive) and the GI50 (HCC 2998) was > 100 µM (inactive). For the same compound, the GI50 (OVCAR-8) was > 100 µM (inactive), the GI50 (K562) was > 100 µM (inactive) and the GI50 (NCI-H23) was > 100 µM (inactive). For the same compound, the GI50 (LOX IMVI) was > 100 µM (inactive), the GI50 (SK-MEL-28) was > 100 µM (inactive) and the GI50 (TK-10) was > 100 µM (inactive). The GI50 (MDA-MB-435) was > 100 µM (inactive), the GI50 (BT-549) was > 100 µM (inactive) and the GI50 (SK-OV-3) was > 100 µM (inactive). For the same compound, the GI50 (UACC-257) was > 100 µM (inactive), the GI50 (PC-3) was > 100 µM (inactive) and the GI50 (MOLT-4) was > 100 µM (inactive). For the same compound, the GI50 (MDA-N) was > 100 µM (inactive), the GI50 (KM12) was > 100 µM (inactive) and the GI50 (SF-539) was > 100 µM (inactive). The GI50 (CCRF-CEM) was > 100 µM (inactive), the GI50 (NCI/ADR-RES) was > 100 µM (inactive) and the GI50 (OVCAR-5) was > 100 µM (inactive). For the same compound, the GI50 (SF-268) was > 100 µM (inactive), the GI50 (U-251) was > 100 µM (inactive) and the GI50 (SR) was > 100 µM (inactive). The GI50 (HT-29) was > 100 µM (inactive), the GI50 (SW-620) was > 100 µM (inactive) and the GI50 (SK-MEL-2) was > 100 µM (inactive). The GI50 (NCI-H460) was > 100 µM (inactive), the GI50 (HCT-15) was > 100 µM and the GI50 (DU-145) was > 100 µM (inactive). The GI50 (NCI-H522) was > 100 µM (inactive), the GI50 (RXF 393) was > 100 µM (inactive) and the GI50 (Hs-578T) was > 100 µM (inactive). For the same compound, the GI50 (RPMI-8226) was > 100 µM (inactive), the GI50 (SNB-19) was > 100 µM (inactive) and the GI50 (SK-MEL-5) was > 100 µM (inactive). For the same compound, the GI50 (IGROV-1) was > 100 µM (inactive), the GI50 (UO-31) was > 100 µM (inactive) and the GI50 (A549) was > 100 µM (inactive). For the same compound, the GI50 (Malme-3M) was > 100 µM (inactive).

In the case of `Cc1ccc(S(=O)(=O)N/N=C/c2c(O)ccc3ccccc23)cc1`, the GI50 (SF-295) is reported as 16.2 µM (inactive), the GI50 (UACC-62) is reported as 18.2 µM (inactive) and the GI50 (OVCAR-4) is reported as 28.8 µM (inactive). For the same compound, the GI50 (ACHN) was 23.9 µM (inactive), the GI50 (SN12C) was 31.1 µM (inactive) and the GI50 (HOP-62) was 37.7 µM (inactive). For the same compound, the GI50 (EKVX) was 32.1 µM (inactive), the GI50 (M14) was 22.1 µM (inactive) and the GI50 (786-0) was 30.1 µM (inactive). For the same compound, the GI50 (SNB-75) was 20.7 µM (inactive), the GI50 (COLO 205) was 19.5 µM (inactive) and the GI50 (HCT-116) was 15.3 µM (inactive). The GI50 (MDA-MB-231) was 21.9 µM (inactive), the GI50 (T47D) was 31.8 µM (inactive) and the GI50 (OVCAR-3) was 19.9 µM (inactive). The GI50 (CAKI-1) was 17.9 µM (inactive), the GI50 (MCF7) was 25.5 µM (inactive) and the GI50 (HCC 2998) was 21.4 µM (inactive). For the same compound, the GI50 (OVCAR-8) was 30.4 µM (inactive), the GI50 (K562) was 18.3 µM (inactive) and the GI50 (NCI-H23) was 30.5 µM (inactive). The GI50 (LOX IMVI) was 32.1 µM (inactive), the GI50 (SK-MEL-28) was 35.5 µM (inactive) and the GI50 (TK-10) was 45.8 µM (inactive). The GI50 (MDA-MB-435) was 23.7 µM (inactive), the GI50 (BT-549) was 23.8 µM (inactive) and the GI50 (SK-OV-3) was 7.87 µM (inactive). For the same compound, the GI50 (UACC-257) was 37.3 µM (inactive), the GI50 (PC-3) was 20.7 µM (inactive) and the GI50 (MOLT-4) was 20.5 µM (inactive). For the same compound, the GI50 (MDA-N) was 27.6 µM (inactive), the GI50 (KM12) was 18.9 µM (inactive) and the GI50 (SF-539) was 16.1 µM (inactive). For the same compound, the GI50 (CCRF-CEM) was 36.7 µM (inactive), the GI50 (NCI/ADR-RES) was 27.7 µM (inactive) and the GI50 (OVCAR-5) was 29.6 µM (inactive). The GI50 (SF-268) was 31.8 µM (inactive), the GI50 (U-251) was 27.6 µM (inactive) and the GI50 (HT-29) was 32.9 µM (inactive). For the same compound, the GI50 (SW-620) was 30.3 µM (inactive), the GI50 (SK-MEL-2) was 20.8 µM (inactive) and the GI50 (NCI-H460) was 26.3 µM (inactive). The GI50 (HCT-15) was 24.5 µM, the GI50 (DU-145) was 29 µM (inactive) and the GI50 (NCI-H522) was 17 µM (inactive). The GI50 (RXF 393) was 19.4 µM (inactive), the GI50 (Hs-578T) was 17.5 µM (inactive) and the GI50 (RPMI-8226) was 26.7 µM (inactive). The GI50 (SNB-19) was 41.1 µM (inactive), the GI50 (SK-MEL-5) was 31.8 µM (inactive) and the GI50 (IGROV-1) was 6.68 µM (inactive). The GI50 (UO-31) was 53.7 µM (inactive), the GI50 (HL-60) was 43.4 µM (inactive) and the GI50 (A498) was 16.7 µM (inactive). The GI50 (A549) was 34 µM (inactive) and the GI50 (Malme-3M) was 24.3 µM (inactive).
